Values belong to the compound of their own block, whether it stands above or below them.
How the values were obtained:
[1] = test system: anesthetized thromboxane A2 challenged PAH-minipig; experiment: Haemodynamics in the anesthetized thromboxane challenged minipig (PAH minipig), inhaled nebulized solution: lung selectivity and duration of action; type: in vivo, Göttingen Minipigs; settings: for PAP % changes vs prevalue: mean
Description: Healthy Göttingen Minipigs® Ellegaard (Ellegaard, Denmark) of both sexes and having a weight of 2-6 kg were used. The animals were sedated by i.m. administration of about 25 mg/kg ketamine and about 10 mg/kg azaperone. Anaesthesia was initiated by i.v. administration of about 2 mg/kg ketamine and about 0.3 mg/kg midazolam. Maintenance of anaesthesia was by i.v. administration of about 7.5-30 mg/kg/h ketamine and about 1-4 mg/kg/h midazolam (rate of infusion 1-4 ml/kg/h) and about 150 μg/kg/h pancuronium bromide (for example Pancuronium-Actavis). After intubation, the animals were ventilated by the ventilator at a constant respiratory volume (10-12 ml/kg, 35 breaths/min; Avea®, Viasys Healthcare, USA, or Engström Carestation, GE Healthcare, Freiburg, Germany) such that an end-tidal CO2 concentration of about 5% was achieved. Ventilation was performed with room air, enriched with about 40% oxygen (normoxia). For the measurement of the haemodynamic parameters such as pulmonary arterial pressure (PAP), blood pressure (BP) and heart rate (HR), catheters were inserted into the carotid artery to measure the blood pressure, and a Swan-Ganz® catheter was introduced in a flow-directed manner via the jugular vein into the pulmonary artery. The haemodynamic signals were recorded and evaluated by means of pressure transducers (Combitransducer, B. Braun, Melsungen, Germany)/amplifiers and Ponemah® as data acquisition software.
After the instruments have been placed into the animals, continuous infusion of a thromboxane A2 analog was initiated to increase the pulmonary arterial pressure. About 0.3-0.75 μg/kg/min of 9,11-didesoxy-9α,11α-epoxymethanoprostaglandine F2α (U-44069; Sigma, cat. no. D0400, or Cayman Chemical Company, cat. no. 16440), dissolved in physiological saline, were infused to achieve an increase of the mean pulmonary arterial pressure to values of over 25 mmHg. 30 minutes after the start of the infusion, a plateau was reached, and the experiment was started.
The test substances were administered as i.v. infusion or by inhalation. For the preparation of the solution for inhalation, the following procedure was adopted: For an animal having a weight of 4 kg, to prepare the stock solution (300 μg/kg), 1.2 mg of the test compound were weighed out and dissolved in a total volume of 3 ml (1% DMSO, 99% 0.2% strength citric acid solution, 1 n aqueous sodium hydroxide solution to adjust the pH to 8). The solution was then diluted to the concentration employed using 0.2% strength citric acid which had been adjusted to pH 8 beforehand with aqueous sodium hydroxide solution. In each test, 3 ml of the solution of test compound per 4 kg animal were nebulized in the inhalation arm of the respiratory circuit using the Aeroneb® Pro nebulizer system. The mean nebulization time was about 7 min from the start of the nebulization.
With respect to a prediction of the duration of action for human studies comparative example 11 was compared in the PAH minipig model after inhaled application to Ventavis® (=Iloprost, 10 μg/kg nominal dose), which we used as a clinical reference. […] Therefore, the duration of action is more than 6 times longer compared to Ventavis in this preclinical animal model.

[2] = test system: patients with pulmonary hypertension; settings: clinical studies; cited from earlier work
plasma proteins [3] = experiment: Protein binding via ultrafiltration assay; type: in vitro ADME
Text: For this assay, filter membranes of 30 kDa pore size were used to separate plasma and protein free ultrafiltrate. The driving force for filtration was applied by centrifugation. Prior to protein binding studies, the adsorption (recovery) of the test compound to the ultra-filtration device and the ability of the test compound to pass the filter membrane was checked by filtration of the test compound dissolved in buffer at four concentrations. Sufficient stability of the test compound and an almost complete recovery (≥90% of the actual amount of compound used for the experiment) was a prerequisite for the use of the ultrafiltration method. The amount of organic solvent added to the plasma may not exceed 2% of the total incubation volume. Blood samples were collected in heparinized tubes either pooled (all species except human and monkey) or individually (human and monkey) and were used within 24 h for incubation experiments in blood. Plasma was prepared by centrifugation of the heparinized blood samples. Plasma was stored at −15° C. until use. Plasma stability, Compound recovery, unspecific binding to the membrane and the test device as well as partitioning between blood cells and plasma were controlled. The substance-associated radioactivity was determined by liquid scintillation counting. With this analytical method, it is not possible to distinguish between unchanged substance and radioactive metabolites. For details of the radioanalytical methods and the work up of the samples see Goeller et al. (3). A description of the ultrafiltration method in general was published by Zhang et al. In 2012 (4).

plasma proteins [4] = experiment: Protein binding via Transil assay, human plasma; type: in vitro ADME; settings: all tested species where comparative results are given
Text: The distribution of a test substance between Transil® (phosphatidylcholine lipid bilayers immobilized on silica beads) and plasma is a characteristic feature of any pharmaceutical compound and is dependent on its extent of binding to plasma proteins. By comparing the distribution between Transil® and buffer with the distribution between Transil® and plasma of any species of interest, the unbound fraction in the plasma of the respective animal species can be calculated in vitro. The respective plasma and buffer concentrations were determined via a radioactivity analysis. A detailed description of the method and its validation was published by Schuhmacher et al. (2).

[5] = Particle size distribution by laser diffraction (D.4); type: physicochemical; settings: after micronization, monohydrate II as starting material, 50 mm spiral jet mill; dry measurement 4 bar
Description: All measurements cited in the above tables were obtained by laser diffraction with dry dispersion using compressed air. Measuring in aqueous suspension with surfactants may lead to smaller particle sizes (×90 up to 1 μm smaller).
The particle size analysis data are usually reported as cumulative undersized distribution by volume. The symbol x is used to denote the particle size, which is defined as diameter of a volume equivalent sphere. Most common characteristic values are calculated from the particle size distribution by interpolation. Frequently used are the particle sizes at the undersize values of 10%, 50% and 90% of the volume distribution, denoted as ×10, ×50 and ×90. ×50 is also known as median particle size. The symbol dis widely used to designate the particle size, thus the symbol x may be replaced by the symbol d.

SMILES: CC#CCC(C)[C@H](O)/C=C/[C@@H]1[C@H]2C/C(=C/CCCC(=O)O)C[C@H]2C[C@H]1O (some centres unmarked) [Ventavis, reference compound]
maximal duration of action ([1]; 10 μg/kg nominal dose, inhaled): about 40 min
duration of action on haemodynamics (PVR) [2]: about 60 min

Fraction unbound (%) (plasma proteins [3]; Dog Beagle plasma): 17.1%
Fraction unbound (%) (plasma proteins [3]; Human (male) plasma): 4.97%
Fraction unbound (%) (plasma proteins [3]; Rat Wistar plasma): 15.7%
SMILES: COC(=O)N(C)c1c(N)nc(-c2nn(Cc3ccccc3F)c3ncccc23)nc1N [Comparative example 2, Methyl-4,6-diamino-2-[1-(2-fluorobenzyl)-1H-pyrazolo[3,4-b]pyridine-3-yl]-5-pyrimidinyl(methyl)carbamate]

SMILES: O=C(O)c1ccc(CCN(CCc2ccccc2OCc2ccc(-c3ccc(C(F)(F)F)cc3)cc2Cl)[C@H]2CCCc3nc(C(=O)O)ccc32)cc1 [Example 1, (5S)—{[2-(4-Carboxyphenyl)ethyl][2-(2-{[3-chloro-4′-(trifluoromethyl)biphenyl-4-yl]methoxy}phenyl)-ethyl]amino}-5,6,7,8-tetrahydroquinoline-2-carboxylic Acid Monohydrate II]
free fractions (comparison) (plasma proteins [4]): lowest free fractions

PSD X10 [5]: X10: 0.2 μm,
PSD X50 [5]: X50: 1.7 μm,
PSD X90 [5]: X90: 4.2 μm
SMILES: CCOC(=O)c1ccc2c(n1)CCCC2NCCc1ccccc1OCc1ccc(-c2ccc(C(F)(F)F)cc2)cc1Cl (single isomer, unassigned) [Example 8a, Ethyl 5-{[2-(2-{[3-chloro-4′-(trifluoromethyl)biphenyl-4-yl]methoxy}phenyl)ethyl]amino}-5,6,7,8-tetrahydroquinoline-2-carboxylate]

SMILES: O=C(O)CCCCN(CCc1cc(F)ccc1OCc1ccc(-c2nc3cc(Cl)ccc3o2)cc1)C1CCCc2nc(C(=O)O)ccc21 (single isomer, unassigned) [compound 3, (5)-{(4-carboxybutyl)[2-(2-{[4-(5-chloro-1,3-benzoxazol-2-yl)benzyl]oxy}-5-fluorophenyl)ethyl]amino}-5,6,7,8-tetrahydroquinoline-2-carboxylic Acid, reference compound]
effect on PAP completely resolved after ([1]; inhaled application): 120 min
time of maximal effect on PAP after inhaled application ([1]; nebulized solution): 30 min

SMILES: CC#CCC(C)[C@H](O)/C=C/[C@@H]1[C@H]2C/C(=C/CCCC(=O)O)C[C@H]2C[C@H]1O (some centres unmarked) [Ventavis ®]
PAP % changes vs prevalue ([1]; inhaled, 10 μg/kg nominal dose, time 0 min): 0%
PAP % changes vs prevalue ([1]; inhaled, 10 μg/kg nominal dose, time 10 min): −30.3%
PAP % changes vs prevalue ([1]; inhaled, 10 μg/kg nominal dose, time 20 min): −20.7%
PAP % changes vs prevalue ([1]; inhaled, 10 μg/kg nominal dose, time 30 min): −6.9%
PAP % changes vs prevalue ([1]; inhaled, 10 μg/kg nominal dose, time 40 min): 1.7%
PAP % changes vs prevalue ([1]; inhaled, 10 μg/kg nominal dose, time 50 min): 4.9%

Source: patent publication US20250281480A1, “PHARMACEUTICAL DRY POWDER INHALATION FORMULATION” (Bayer Aktiengesellschaft, priority 2021, published 2025)
